In patent EP3095787A1, “[…] ACTIVE COMPOUNDS AS DAG-LIPASE INHIBITORS” (Universiteit Leiden, priority 2015, dated 2016):

Experiments:
[1] = tested on: serine hydrolases; assay: Comparative and competitive gel ABPP selectivity in mouse brain membrane proteome (TAMRA-FP and MB064); type: biochemical; settings: 1 µM; including ABHD6 and ABHD12
Procedure: (§1) For gel based ABPP experiments mouse brain proteome (2.0 mg/mL, 20 µL) was preincubated for 30 min with vehicle (DMSO) or compound to be tested in 0.5 µL DMSO at rt. And subsequently treated with 500 nM (final concentration) TAMRA-FP (TAMRA-FP was bought at Thermo Fischer) for 15 minutes at rt. The reactions were quenched with 10 µL standard 3 x SDS page sample buffer. The samples were directly loaded and resolved on SDS page gel (10 % acrylamide). The gels were scanned with a ChemiDoc MP sytem (Biorad, Cy 3 settings, 605/50 filter) and analyzed using Image Lab 4.1.
To investigate the selectivity of compound 25 in the mouse brain proteome comparative and competitive ABPP was used with a broad-spectrum FP-based probe (TAMRA-FP) and the tailored DAGL-α ABP MB064. As a reference the widely used β-lactone-based DAGL-inhibitors THL and OMDM-188, two broad-spectrum covalent and irreversible serine hydrolase inhibitors, were firstly tested.

[2] = molecular target: T1, hDAGL-α (Homo sapiens, UniProt Q9Y4D2); assay: Biochemical hDAGL-α activity assay (PNP-butyrate hydrolysis, 96 well plate); set-up: expressed in transfected cells; host or cells: HEK293T (transient), membrane fraction; settings: PNP-butyrate 0.3 mM, membranes of HEK293T cells transfected with hDAGL-α; for IC50: read-out: DAGL-α Activity assay pIC50 (converted)
T1 sequence (Q9Y4D2 1-1042): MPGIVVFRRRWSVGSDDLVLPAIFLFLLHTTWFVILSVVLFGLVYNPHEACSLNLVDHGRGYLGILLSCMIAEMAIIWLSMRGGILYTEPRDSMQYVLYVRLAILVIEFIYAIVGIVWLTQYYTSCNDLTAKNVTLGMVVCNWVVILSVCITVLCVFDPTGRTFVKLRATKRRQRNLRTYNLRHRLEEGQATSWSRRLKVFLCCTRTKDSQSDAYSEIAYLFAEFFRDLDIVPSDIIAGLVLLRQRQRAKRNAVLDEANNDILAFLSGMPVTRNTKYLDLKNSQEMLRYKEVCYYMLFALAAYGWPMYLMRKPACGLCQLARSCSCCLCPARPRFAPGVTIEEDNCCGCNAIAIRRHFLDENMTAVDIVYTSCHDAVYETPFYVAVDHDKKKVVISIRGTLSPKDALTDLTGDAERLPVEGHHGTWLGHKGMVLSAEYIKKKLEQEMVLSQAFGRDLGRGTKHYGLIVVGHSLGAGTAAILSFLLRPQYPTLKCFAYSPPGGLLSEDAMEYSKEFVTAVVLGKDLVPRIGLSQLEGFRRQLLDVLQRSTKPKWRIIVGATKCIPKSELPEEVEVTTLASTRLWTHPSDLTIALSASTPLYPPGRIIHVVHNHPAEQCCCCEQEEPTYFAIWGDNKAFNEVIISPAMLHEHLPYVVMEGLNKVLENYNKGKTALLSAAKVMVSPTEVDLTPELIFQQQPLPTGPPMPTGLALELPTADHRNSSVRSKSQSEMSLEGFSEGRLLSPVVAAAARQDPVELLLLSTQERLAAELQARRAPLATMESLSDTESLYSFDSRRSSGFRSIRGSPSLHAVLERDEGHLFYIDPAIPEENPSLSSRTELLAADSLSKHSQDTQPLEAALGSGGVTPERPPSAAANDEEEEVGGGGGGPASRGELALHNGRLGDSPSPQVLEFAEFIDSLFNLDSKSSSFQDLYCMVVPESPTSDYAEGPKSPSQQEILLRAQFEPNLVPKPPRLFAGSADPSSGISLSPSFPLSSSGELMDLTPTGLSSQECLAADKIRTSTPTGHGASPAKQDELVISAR
Procedure: The biochemical hDAGL-α activity assay is based on the hydrolysis of para-nitrophenylbutyrate (PNP-butyrate) by membrane preparations from HEK293T cells transiently transfected with hDAGL-α. 200 µL reactions were performed in flat bottom Greiner 96-wells plates in a 50 mM pH 7.2 Hepes buffer. Membrane protein fractions from HEK293T cells transiently transfected with hDAGL-α (0.05 µg/µL final concentration) were used as hDAGL-α source. Compounds to be tested were introduced in 5 µL DMSO. The mixtures were incubated for 30 minutes before 5.0 µL 12 mM PNP-butyrate (final concentration 0.3 mM) in DMSO was added (final DMSO concentration 5.0%). Kinetics were followed immediately after addition of PNP-butyrate on a plate reader (TECAN GENios® microplate reader), by measuring the OD420 every 60 seconds, for 20 minutes at 37°C. The slope of the linear region from 5-15 minutes was determined, and all experiments were performed at N = 2, n = 2 for experimental measurements and N = 2, n = 4 for controls.
Data analysis: Z'-factor of each plate was determined for the validation of each experiment, using the following formula Z' = 1-3(σpc + σnc)/(µpc - µnc). The slope from 5-15 minutes of the positive control (pc: hDAGL-α, DMSO), and the negative control (nc: Mock, DMSO) was used. Plates were accepted for further analysis when Z' > 0.6. Kinetic measurements were corrected for the average absorption of the negative control (mock, DMSO). The slope of the linear region from 5-15 minutes was determined. The average, standard deviation (SD) and standard error of mean (SEM) were calculated and normalized to the corrected positive control. Data was exported to Graphpad Prism 5.0 for the calculation of the pIC50 using a nonlinear dose-response analysis.

[3] = molecular target: T2, FAAH (Mus musculus, UniProt O08914); assay: Gel based competitive ABPP selectivity assay with TAMRA-FP in mouse brain proteome (FAAH band); type: biochemical; settings: 10 µM inhibitor; TAMRA-FP 500 nM; mouse brain proteome; vehicle set to 100%
T2 construct: For gel based ABPP experiments mouse brain proteome (2.0 mg/mL, 20 µL) was preincubated; from tissue; host or cells: mouse brain proteome
T2 sequence (O08914 1-579): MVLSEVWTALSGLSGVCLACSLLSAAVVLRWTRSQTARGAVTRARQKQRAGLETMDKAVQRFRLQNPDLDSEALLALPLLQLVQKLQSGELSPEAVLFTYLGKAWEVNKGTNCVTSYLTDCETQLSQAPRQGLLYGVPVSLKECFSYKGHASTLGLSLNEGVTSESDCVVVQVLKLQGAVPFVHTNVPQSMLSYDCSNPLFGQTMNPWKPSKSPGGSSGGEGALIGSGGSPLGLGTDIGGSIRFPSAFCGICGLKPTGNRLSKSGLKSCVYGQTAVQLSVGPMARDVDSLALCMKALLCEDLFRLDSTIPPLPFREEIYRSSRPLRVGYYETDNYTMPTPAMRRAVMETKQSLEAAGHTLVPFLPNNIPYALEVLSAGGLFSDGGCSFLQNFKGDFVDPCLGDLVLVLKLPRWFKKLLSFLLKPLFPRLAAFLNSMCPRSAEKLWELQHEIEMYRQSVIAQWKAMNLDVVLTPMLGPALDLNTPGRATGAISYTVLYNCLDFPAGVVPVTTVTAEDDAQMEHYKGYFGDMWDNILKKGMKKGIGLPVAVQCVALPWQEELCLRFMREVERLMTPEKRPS
Procedure: as §1
The percentage effect on FAAH was determined by measuring the integrated optical intensity of the band corresponding to FAAH (∼ 63 kD for mouse) using Image lab software. This activity was corrected for the total protein loading per lane as determined by coomassie staining and imaging with a ChemiDoc™ MP sytem (Biorad) followed by determination of the integrated optical intensity per lane by using Image Lab 4.1 software. The intensity of the protein bands from the samples treated with vehicle was set to 100%. […] N/A means less than 50% probe displacement at 10 µM inhibitor concentration.

[4] = molecular target: T1, hDAGL-α; assay: Mode of action (reversibility) experiment: size exclusion chromatography, then MB064 labeling; type: biochemical; set-up: expressed in transfected cells; settings: pre-incubation at IC80 concentration; remaining activity visualized with MB064; n=3
Procedure: To determine the mode of action (reversible versus irreversible) of the inventive compounds, an experiment in which human DAGL-α membranes were pre-incubated at the IC80 concentration of compound 25 or the irreversible DAGL inhibitor KT-109 was performed.

Row | Molecule | IC50 [2] [nM] | FAAH ABPP (10 µm) % Eff. [3] | other results
1 | CCCCCCCCCCC[C@@H](C[C@@H]1OC(=O)[C@H]1CCCCCC)OC(=O)[C@@H](NC=O)[C@@H](C)CC [OMDM-188, reference compound] |  |  | number of serine hydrolases whose labeling is blocked [1]: at least 4
2 | Cc1ccc(-c2cnc3nc(C(=O)CCc4cccc(Oc5ccccc5)c4)oc3c2)cc1 [Compound 27, 3-(3-Phenoxyphenyl)-1-(6-(p-tolyl)oxazolo[4,5-b]pyridin-2-yl)propan-1-one] | 3.72 | N/A (N/A means less than 50% probe displacement at 10 µM inhibitor concentration) | 
3 | 1-(4-fluoro-6-(2-fluorophenyl)benzo[d]oxazol-2-yl)-6-phenylhexan-1-one [Compound 31] |  | N/A (N/A means less than 50% probe displacement at 10 µM inhibitor concentration) | DAGL-α Activity assay pIC50 [2]: 8.6
4 | CCCCCCCCCCC[C@@H](C[C@@H]1OC(=O)[C@H]1CCCCCC)OC(=O)[C@H](CC(C)C)NC=O [THL, Tetrahydrolipstatin, reference compound] |  |  | number of serine hydrolases whose labeling is blocked [1]: at least 4
5 | Cc1ccc(-c2cnc3nc(C(=O)CCc4ccccc4Oc4ccccc4)oc3c2)cc1 [Compound 26, 3-(2-phenoxyphenyl)-1-(6-(p-tolyl)oxazolo[4,5-b]pyridin-2-yl)propan-1-one] | 8.32 | N/A (N/A means less than 50% probe displacement at 10 µM inhibitor concentration) | 
6 | O=C(N1CCCCC1Cc1ccccc1)n1cc(-c2ccc(-c3ccccc3)cc2)nn1 (stereo not shown) [KT-109, reference compound] |  |  | recovery of DAGL-α activity after size exclusion chromatography [4]: No recovery of DAGL-α activity

Now from value to molecule, other results behind:

Row | IC50 [2] [nM] | Molecule | FAAH ABPP (10 µm) % Eff. [3] | other results
7 | 5.13 | Cc1ccc(-c2cnc3nc(C(=O)CCc4ccc(Oc5ccccc5)cc4)oc3c2)cc1 [Compound 28, 3-(4-phenoxyphenyl)-1-(6-(p-tolyl)oxazolo[4,5-b]pyridin-2-yl)propan-1-one] | N/A (N/A means less than 50% probe displacement at 10 µM inhibitor concentration) | 
8 | 1.32 | Cc1ccccc1-c1cc(F)c2nc(C(=O)CCCCCc3ccccc3)oc2c1 [Compound 33, 1-(4-fluoro-6-(o-tolyl)benzo[d]oxazol-2-yl)-6-phenylhexan-1-one] | N/A (N/A means less than 50% probe displacement at 10 µM inhibitor concentration) | 
9 | 0.851 | Cc1ccc(-c2cnc3nc(C(=O)CCc4ccc(Oc5ccc(C(F)(F)F)cn5)cc4)oc3c2)cc1 [Compound 29, 1-(6-(p-Tolyl)oxazolo[4,5-b]pyridin-2-yl)-3-(4-((5-(trifluoromethyl)pyridin-2-yl)oxy)phenyl)propan-1-one] | N/A (N/A means less than 50% probe displacement at 10 µM inhibitor concentration) | 
10 | 5.01 | O=C(CCCCCc1ccccc1)c1nc2c(F)cc(-c3ccc(F)cc3)cc2o1 [Compound 30, 1-(4-fluoro-6-(4-fluorophenyl)benzo[d]oxazol-2-yl)-6-phenylhexan-1-one] | N/A (N/A means less than 50% probe displacement at 10 µM inhibitor concentration) | 
11 | 1.41 | Cc1ccc(-c2cc(F)c3nc(C(=O)CCCCCc4ccccc4)oc3c2)cc1 [Compound 32, 1-(4-fluoro-6-(p-tolyl)benzo[d]oxazol-2-yl)-6-phenylhexan-1-one] | N/A (N/A means less than 50% probe displacement at 10 µM inhibitor concentration) | 
